Measurements taken from US10676754B2, “Compositions and methods for producing plants resistant to glyphosate herbicide” (E I DU PONT DE NEMOURS AND COMPANY, priority 2014, dated 2020).

B1: I-SceI: wild type yeast I-SceI homing nuclease (protein, UniProt P03882 1-235, looked up)
Intron-encoded endonuclease …: MKNIKKNQVMNLGPNSKLLKEYKSQLIELNIEQFEAGIGLILGDAYIRSRDEGKTYCMQFEWKNKAYMDHVCLLYDQWVLSPPHKKERVNHLGNLVITWGAQTFKHQAFNKLANLFIVNNKKTIPNNLVENYLTPMSLAYWFMDDGGKWDYNKNSTNKSIVLNTQSFTFEEVEYLVKGLRNKFQLNCYVKINKNKPIIYIDSMSYLIFYNLIKPYLIPQMMYKLPNTISSETFLK

Columns and labels:
maize plants = test: Glyphosate spray test on maize plants at V3 growth stage; assay type: in vivo
Experimental: TO plants grew well in the greenhouse and were fertile. A sample of TO plants was sprayed with a 1× dose of glyphosate at V3 growth stage using the spray booth setting of 20 gallons per acre. The 1× dose of glyphosate was prepared as follow: 2.55 ml Powermax in 300 ml water (active ingredient: glyphosate, N-(phosphonomethyl) glycine, in the form of its potassium salt at 48.7%). […] This TO plant was designated as hemizygous at the epsps locus.
A random sample of the F1 plants progeny of the E1 and E2 parental plants) was sprayed with 2.55 ml Powermax (glyphosate solution) in 300 ml water at the setting of 20 gallons per acre at the V3 stage of growth.

F2 maize embryos = test: Embryo rescue: germination of F2 embryos on rooting media containing glyphosate; assay type: in vivo
Experimental: For embryo rescue of the F2 progeny seedlings from selfed F1 plants, ears were harvested 18 days after pollination and sterilized in 20:80 bleach/water mix. Embryos were excised and placed on rooting media (272V—4.3 g/L Murashige and Skoog basal salt mixture, 5.0 ml/L MS vitamins stock solution, 100 mg/L mio-inositol, 40 g/L sucrose, 6 g/L Bacto Agar) with or without glyphosate at 0.1 mM, 0.5 mM, 1 mM, 3 mM concentration. They were transferred to a light room at 26° C. and allowed to germinate for 7 days. Embryos containing the wild-type EPSPS alleles, hemizygous and homozygous for the epsps-TIPS allele germinated on media without glyphosate. […] The presence of the epsps-TIPS allele in the analyzed seedlings is indicated as “positive” or “negative”, while the wild-type EPSPS allele copy number is indicated in the columns to the right (Table 14)

[1] = test system: artificial I-SceI recognition site in maize genome; settings: analyzed F1 plants, transgenic nuclease introduced by crossing and activated by gene excision; cited from earlier work
[2] = epsps-TIPS-containing F1 plants after spray

Row | Molecule | survival of plants (maize plants; F1 plants containing the epsps-TIPS edited allele, 2.55 ml Powermax in 300 ml water, 20 gallons per acre, V3) | leaf tissue damage (maize plants; F1 plants without the epsps-TIPS allele, 2.55 ml Powermax in 300 ml water, 20 gallons per acre, V3) | leaf tissue damage (maize plants; T0 plants hemizygous for epsps-TIPS alleles, 1× dose, V3, 20 gallons per acre, seven days after application) | growth of plants (maize plants; [2]) | leaf symptoms over time (maize plants; [2]) | leaf tissue damage (maize plants; one T0 plant hemizygous at the epsps locus, 1× dose, 14 days after application) | leaf tissue damage (maize plants; other T0 plantlets, 1× dose, V3, 20 gallons per acre, seven days after application) | tolerance of plants (maize plants; some epsps-TIPS edited maize T0 plants, 1× dose) | green seedling production (F2 maize embryos; 0.1 mM in rooting media, 7 days, 26° C., F2 embryos) | wild-type seedlings among germinating embryos (F2 maize embryos; 0.1 mM or any other concentration up to 3 mM in media) | green seedling production (F2 maize embryos; embryos homozygous for the epsps-TIPS allele, 1.0 mM) | green seedling production (F2 maize embryos; hemizygous embryos, 1.0 mM) | plants with mutations of the recognition sequence [1]
1 | O=C(O)CNCP(=O)(O)O [glyphosate, N-phosphonomethylglycine] | survived | severe leaf tissue damage | no leaf tissue damage | slowed down | bleached sectors of the leaf tissue on newly emerging leaves | no damage to the leaf tissue | severely damaged | some level of tolerance | only embryos containing the epsps-TIPS alleles produced green seedlings | No wild-type seedlings were detected | produced green seedlings | did not | –
2 | B1 | – | – | – | – | – | – | – | – | – | – | – | – | 1%
